SMILES strings stand for the structures.

For this test, the target named is T1, human norepinephrine transporter (Homo sapiens, UniProt P23975).
T1 construct: expressed in transfected cells; host or cells: MDCK (dog kidney) cells, stably transfected; total cell membranes
Put plainly: [125I]RTI-55 membrane binding assay. Conditions: for IC50: membranes of MDCK cells transfected with human NET, 0.2 nM [125I]RTI-55, 4° C., 3 h, read-out: IC50, inhibition of [125I]RTI-55 binding to norepinephrine transporter; for inhibition of [125I]RTI-55 binding to norepinephrine transporter (result in words): qualitative statement. The procedure:
Membrane Binding Assay. Membranes from dog kidney MDCK cells, which stably transfected with the human norepinephrine transporter, were used. Total cell membranes were prepared from transfected cells grown to confluence in 500 cm^2 tissue culture dishes. Cells were scraped into centrifuge tube and pelleted at 900 g and 4° C. for 10 min. The pellets were resuspended in modified Tris-HCl buffer (50 mM Tris-HCl, 100 mM NaCl, 1 μM leupetin, 10 μM PMSF; pH 7.4), and centrifuged at 17000 g and 4° C. for 30 min. Then, the pellets were resuspended, homogenized with a glass homogenizer with a Teflon pestle and centrifuged at 17000 g and 4° C. for 90 minutes. Pellets were collected and resuspended in modified Tris-HCl buffer. Protein concentrations were determined using BCA protein assay reagent (Pierce, Rockford). […] The binding was terminated by rapid vacuum filtration over Whatman GF/B filters soaked in 0.3% polyethylineimine followed by three rapid 1 mL washes in ice-cold buffer. Bound radioactivity was measured by gamma emission spectrometry. Non-specific binding was determined in the presence of 10 μM desipramine and was subtracted from the data in the absence of desipramine to yield specific binding.

T1 sequence (P23975 whole entry): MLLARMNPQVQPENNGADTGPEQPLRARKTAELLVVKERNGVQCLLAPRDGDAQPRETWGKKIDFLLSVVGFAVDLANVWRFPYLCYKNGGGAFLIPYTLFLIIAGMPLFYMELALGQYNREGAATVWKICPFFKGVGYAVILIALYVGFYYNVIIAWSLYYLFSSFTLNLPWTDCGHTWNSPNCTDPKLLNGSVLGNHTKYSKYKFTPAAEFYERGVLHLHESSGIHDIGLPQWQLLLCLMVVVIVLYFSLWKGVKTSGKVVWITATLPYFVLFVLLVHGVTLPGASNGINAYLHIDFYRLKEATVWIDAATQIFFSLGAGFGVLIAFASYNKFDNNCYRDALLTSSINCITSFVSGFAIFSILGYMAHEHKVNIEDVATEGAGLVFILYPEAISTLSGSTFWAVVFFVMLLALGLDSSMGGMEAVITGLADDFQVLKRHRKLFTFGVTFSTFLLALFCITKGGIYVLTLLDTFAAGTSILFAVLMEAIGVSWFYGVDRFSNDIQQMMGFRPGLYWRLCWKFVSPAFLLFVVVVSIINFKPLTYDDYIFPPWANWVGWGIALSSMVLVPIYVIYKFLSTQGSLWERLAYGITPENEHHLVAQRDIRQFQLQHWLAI

With `O=C(OC1C(O)C(CO)OC(OC2COC(CO)C(O)C2O)C1O)c1ccccc1` (stereo not drawn) [Compound 2, 3-O-benzoyl-polygolitosyl-(2→1)-α-galactose], the IC50 (in general, the concentration that gives 50% inhibition) was determined as 6.04 µM and the “inhibition of [125I]RTI-55 binding to norepinephrine transporter (result in words)” value is recorded as “more potent than the others”.

Regarding `O=C(OCC1OC(OC2COC(CO)C(O)C2O)C(O)C(O)C1O)c1ccccc1` (stereo not drawn) [Compound 1, 6-O-benzoyl polygolitosyl-(2→1)-α-galactose], the half-maximal inhibitory concentration (IC50) was 30 µM and the “inhibition of [125I]RTI-55 binding to norepinephrine transporter (result in words)” value was “more potent than the others”.

The record behind these values is US7531519B2, “Polygalatenosides and use thereof as an antidepressant agent” (Medical and Pharmaceutical Industry Technology and …, priority 2006, dated 2009).
